# Data from US20110191897A1, “Plants Tolerant to HPPD Inhibitor Herbicides” (Bayer CropScience AG, priority 2009, published 2011).
# Several values for one entry are separate records, joined by “and”; a condition that tells them apart may be missing. Identical values can stand only once.
# Tests used:
# [1] = tested on: T1 tobacco plants with Arabidopsis HPPD; assay: Glasshouse spray trial, herbicidal damage; format: in vivo, Nicotiana tabacum; conditions: 100 gAl/ha, 7DAT
# Method: (§1) T0 Tobacco plants containing either the gene from Arabidopsis coding for HPPD or the gene FMP37e from Blepharisma japonicum coding for FMP37 HPPD, mentioned above (Example 3), were transferred to the glasshouse (28/20° C.), to develop further and produce seeds. Those seeds were harvested and put on soil (ED73 mixed with sand and osmocote Pro) to germinate in the glasshouse (28/20° C.). Three to four weeks later, plantlets were transferred to single pots containing the soil mentioned above. Two weeks later, plants of a size 4-6 cm diameter were sprayed with either • tembotrione at 100 Al/ha prepared from a WP20 (wettable powder 20%) formulation supplemented with ammonium sulfate and methyl ester raps oil, or • isoxaflutole at 100 Al/ha prepared from a WP20 formulation supplemented with ammonium sulfate and methyl ester raps oil, or • bicyclopyrone at 100 gAl/ha prepared from a WP20 formulation supplemented with ammonium sulfate and methyl ester raps oil, or • “blind formulation” made from a WP20 formulation without active ingredient (Al) supplemented with ammonium sulfate and methyl ester raps oil, and were then transferred to a growth chamber with adequate light conditions (20000Lux).
# [2] = tested on: T1 tobacco plants with FMP37e coding for the HPPD FMP37; assay: Glasshouse spray trial, herbicidal damage; format: in vivo, Nicotiana tabacum; conditions: 100 gAl/ha, 7DAT
# Method: as §1
# [3] = tested on: transgenic soybean shoots (FMP37); assay: Soybean shoot greening on isoxaflutole selection; format: in vivo; conditions: isoxaflutole as selection marker
# Text: (§2) Soybean transformation is achieved using methods well known in the art, such as the one described using the Agrobacterium tumefaciens mediated transformation soybean half-seed explants described by Paz et al. (2006, Plant cell Rep. 25:206). Transformants were identified using Isoxaflutole as selection marker. The appearance of green shoots was observed, and documented as an indicator of tolerance to the herbicide isoxaflutole.
# [4] = tested on: wild-type soybean shoots; assay: Soybean shoot greening on isoxaflutole selection; format: in vivo; conditions: same amount of isoxaflutole
# Text: as §2
smiles,measurement,setting,value
"CS(=O)(=O)c1cc(C(F)(F)F)ccc1C(=O)c1cnoc1C1CC1 [Isoxaflutole, (5-cyclopropyl-4-isoxazolyl)[2-(methylsulfonyl)-4-(trifluoromethyl)phenyl]methanone]",% injury,"[1]; line 252, individual plants",99%
same,% injury,"[1]; line 327, individual plants",98% and 99% and 100% (4×)
same,% injury,"[2]; line 113, individual plants",30% (4×) and 50%
same,% injury,"[2]; line 207, individual plants",40%
same,share of transgenic tested shoots showing normal greening,[3],1.5%
same,appearance of shoots,[4],entirely bleached
